Measured values as given in patent US10206908B2, “3-(1H-pyrrolo[3,2-C]pyridin-2-YL)-1H-pyrazolo[3,4-C]pyridines and therapeutic uses thereof” (Samumed, LLC, priority 2015, dated 2019).

Legend:
Assay type in all cases: cell-based
[1] = system: primary human mesenchymal stem cells (hMSCs); assay: Induction of chondrogenesis in hMSCs (chondrogenic nodules, Rhodamine B/Nile Red); conditions: 6 days; for EC50: concentration required to induce 50% levels of chondrogenesis vs TGF-β3, read-out: Conc (nM) of 50% TGF-β3 activity; for Emax: relative to TGF-β3 (10 ng/mL) positive control, read-out: Max. Activity as % TGF-β3 activity
Excerpt: Representative compounds were screened using primary human mesenchymal stem cells (hMSCs) to determine their ability to induce chondrogenesis (process by which cartilage is developed).
Human Mesenchymal Stem Cell Culture: Primary human mesenchymal stem cells (hMSCs) were purchased from Lonza (Walkersville, Md.) and expanded in Mesenchymal Stem Cell Growth Media (Lonza). Cells between passage 3 and 6 were used for the experiments.
Number of nodules in each well was normalized to the average of 3 DMSO treated wells on the same plate using Excel (Microsoft Inc.). The normalized averages (fold change over DMSO) of 3 replicate wells for each compound concentration were calculated. Due to solubility limitations of some of the compounds, curve fitting was incomplete leading to inaccurate EC50 determinations.
Using TGF-β3 as a positive control, the concentration of representative compounds required to induce 50% levels of chondrogenesis is reported. In addition, the maximum activity of each compound and the respective dose that each compound reached maximum chondrogenesis activity is reported.

[2] = system: primary human fibroblasts derived from IPF patients (LL29 cells) treated with TGF-β1; assay: Inhibition of the fibrotic process: αSMA staining in TGF-β1 treated LL29 fibroblasts; conditions: Fibroblast; for EC50: 96 h, % αSMA positive LL29 cells, TGF-β1 20 ng/mL, 4 days; for inhibition at 10 µM: read-out: percent inhibition at 10 μM
Method in brief: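 IPF-patient-derived LL29 lung fibroblasts in F12 with 1% FBS, stimulated with TGF-β1 alongside compound; TGF-β1 plus DMSO wells served as controls. After 4 days, nuclei stained with 1 μM SYTOX green for 30 min at room temperature, alongside αSMA staining.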

[3] = system: SW480 colon cancer cells; assay: Cell viability assay (CellTiter-Blue) in SW480 colon cancer cells; conditions: Homo sapiens; for EC50: 96 h, SW480 cell viability, four days; for inhibition at 10 µM: SW480, read-out: percent inhibition at 10 μM
Method in brief: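 Fluorescence from resazurin reduced to resorufin by metabolically active cells was the read-out, taken after ~3 h with CellTiter-Blue.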

[4] = system: Wnt activity (Sp5-Luc reporter, SW480 colon carcinoma cells); assay: Screening assay for Wnt activity: Sp5-Luc reporter gene assay in SW480 colon carcinoma cells; conditions: Homo sapiens; for EC50: Sp5-Luc reporter, SW480 cells, overnight incubation; for inhibition at 10 µM: SW480, read-out: percent inhibition at 10 μM
Method in brief: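 SW480 colon carcinoma cells stably carrying Sp5 promoter (eight TCF/LEF sites)-driven firefly luciferase, plated at 4,000 cells/well in 1% FBS medium and incubated overnight at 37° C. Luminescence normalised to DMSO-only cells; EC50 from four-parameter variable-slope nonlinear regression.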

[5] = system: IL-6 (THP-1 cells); assay: IL-6 inhibition in LPS-stimulated THP-1 monocytes (HTRF); conditions: Homo sapiens; for EC50: IL-6, THP-1 cells, LPS 500 ng/mL, 22 hours; for inhibition at 10 µM: THP-1, read-out: percent inhibition at 10 μM
Method in brief: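 THP-1 cells kept 24 h in 1% FBS medium, exposed to compound 2 h at 37 °C, then stimulated with 500 ng/mL LPS for 22 h. Secreted IL-6 quantified by HTRF (665/620 nm ratio), duplicates. Values normalized to DMSO; EC50 by four-parameter variable-slope regression.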

Compound	EC50 [1] [nM]	Emax [1] [%]	EC50 [2] [µM]	EC50 [3] [µM]	EC50 [4] [µM]	EC50 [5] [µM]	inhibition at 10 µM [3] [%]	inhibition at 10 µM [2] [%]	inhibition at 10 µM [4] [%]	inhibition at 10 µM [5] [%]
Oc1cncc(-c2cc3c(-c4cc5c(-c6cccs6)nccc5[nH]4)n[nH]c3cn2)c1 [Compound 709, 5-(3-(4-(Thiophen-2-yl)-1H-pyrrolo[3,2-c]pyridin-2-yl)-1H-pyrazolo[3,4-c]pyridin-5-yl)pyridin-3-ol]	10	83	0.34	6.35	1.01	3.19				
CN1CCN(c2nccc3[nH]c(-c4n[nH]c5cnc(-c6cncc(NC(=O)C7CCCCC7)c6)cc45)cc23)CC1 [Compound 247, N-(5-(3-(4-(4-Methylpiperazin-1-yl)-1H-pyrrolo[3,2-c]pyridin-2-yl)-1H-pyrazolo[3,4-c]pyridin-5-yl)pyridin-3-yl)cyclohexanecarboxamide]	10	61	2.99	> 10	3.42	4.6	40.3			
CN(C)Cc1cncc(-c2cc3c(-c4cc5c(N6CCN(C)CC6)nccc5[nH]4)n[nH]c3cn2)c1 [Compound 237, N,N-Dimethyl-1-(5-(3-(4-(4-methylpiperazin-1-yl)-1H-pyrrolo[3,2-c]pyridin-2-yl)-1H-pyrazolo[3,4-c]pyridin-5-yl)pyridin-3-yl)methanamine]		14	> 10	> 10	3.89	4.68	43.7	37		
CS(=O)(=O)NCc1cc(F)cc(-c2nccc3[nH]c(-c4n[nH]c5cnc(-c6cncc(NC(=O)C7CCC7)c6)cc45)cc23)c1 [Compound 497, N-(5-(3-(4-(3-Fluoro-5-(methylsulfonamidomethyl)phenyl)-1H-pyrrolo[3,2-c]pyridin-2-yl)-1H-pyrazolo[3,4-c]pyridin-5-yl)pyridin-3-yl)cyclobutanecarboxamide]		16	> 10	> 10	> 10	> 10	12.8	0	27.2	38.8
CN(C)Cc1cncc(-c2cc3c(-c4cc5c(-c6cccc(F)c6)nccc5[nH]4)n[nH]c3cn2)c1 [Compound 13, 1-(5-(3-(4-(3-Fluorophenyl)-1H-pyrrolo[3,2-c]pyridin-2-yl)-1H-pyrazolo[3,4-c]pyridin-5-yl)pyridin-3-yl)-N,N-dimethylmethanamine]	30	60	0.009	1.73	1.85	0.425				
O=C(Nc1cncc(-c2cc3c(-c4cc5c(N6CCCCC6)nccc5[nH]4)n[nH]c3cn2)c1)C1CCC1 [Compound 189, N-(5-(3-(4-(Piperidin-1-yl)-1H-pyrrolo[3,2-c]pyridin-2-yl)-1H-pyrazolo[3,4-c]pyridin-5-yl)pyridin-3-yl)cyclobutanecarboxamide]		42	1.23	4.89	4.07	3.43				
CC(C)C(=O)Nc1cncc(-c2cc3c(-c4cc5c(-c6cc(F)cc(CNS(C)(=O)=O)c6)nccc5[nH]4)n[nH]c3cn2)c1 [Compound 485, N-(5-(3-(4-(3-Fluoro-5-(methylsulfonamidomethyl)phenyl)-1H-pyrrolo[3,2-c]pyridin-2-yl)-1H-pyrazolo[3,4-c]pyridin-5-yl)pyridin-3-yl)isobutyramide]	30	80	> 10	> 10	> 10	> 10	10.5	0	43.9	47.8
Cc1ccncc1-c1cc2c(-c3cc4c(-c5ccc(F)cc5)nccc4[nH]3)n[nH]c2cn1 [Compound 33, 3-(4-(4-Fluorophenyl)-1H-pyrrolo[3,2-c]pyridin-2-yl)-5-(4-methylpyridin-3-yl)-1H-pyrazolo[3,4-c]pyridine]		24	0.266	0.716	0.595	0.489				
O=C(Nc1cncc(-c2cc3c(-c4cc5cnccc5[nH]4)n[nH]c3cn2)c1)C1CC1 [Compound 272, N-(5-(3-(1H-Pyrrolo[3,2-c]pyridin-2-yl)-1H-pyrazolo[3,4-c]pyridin-5-yl)pyridin-3-yl)cyclopropanecarboxamide]	30	58	1.9	> 10	1.54	> 10	18.6			9.6
O=C(Nc1cncc(-c2cc3c(-c4cc5c(-c6ccc(F)cc6)nccc5[nH]4)n[nH]c3cn2)c1)C1CC1 [Compound 48, N-(5-(3-(4-(4-Fluorophenyl)-1H-pyrrolo[3,2-c]pyridin-2-yl)-1H-pyrazolo[3,4-c]pyridin-5-yl)pyridin-3-yl)cyclopropanecarboxamide]	30	96	0.404	0.666	0.844	1.05				
CCCCC(=O)Nc1cncc(-c2cc3c(-c4cc5c(-c6cc(F)cc(CNS(C)(=O)=O)c6)nccc5[nH]4)n[nH]c3cn2)c1 [Compound 495, N-(5-(3-(4-(3-Fluoro-5-(methylsulfonamidomethyl)phenyl)-1H-pyrrolo[3,2-c]pyridin-2-yl)-1H-pyrazolo[3,4-c]pyridin-5-yl)pyridin-3-yl)pentanamide]	10	111	> 10	> 10	> 10	> 10	0	3.3	29.6	34.8
CN1CCN(c2nccc3[nH]c(-c4n[nH]c5cnc(-c6cncc(NC(=O)C(C)(C)C)c6)cc45)cc23)CC1 [Compound 232, N-(5-(3-(4-(4-Methylpiperazin-1-yl)-1H-pyrrolo[3,2-c]pyridin-2-yl)-1H-pyrazolo[3,4-c]pyridin-5-yl)pyridin-3-yl)pivalamide]	10	88	0.756	> 10	1.88	0.388	62.2			
CN(C)c1cncc(-c2cc3c(-c4cc5cnccc5[nH]4)n[nH]c3cn2)c1 [Compound 259, 5-(3-(1H-Pyrrolo[3,2-c]pyridin-2-yl)-1H-pyrazolo[3,4-c]pyridin-5-yl)-N,N-dimethylpyridin-3-amine]	300	101	0.401	1.6	3.06	2.21				
Nc1cncc(-c2cc3c(-c4cc5c(-c6ccccc6F)nccc5[nH]4)n[nH]c3cn2)c1 [Compound 59, 5-(3-(4-(2-Fluorophenyl)-1H-pyrrolo[3,2-c]pyridin-2-yl)-1H-pyrazolo[3,4-c]pyridin-5-yl)pyridin-3-amine]	10	117	5.4	0.94	0.224	0.119				
CC(C)C(=O)Nc1cncc(-c2cc3c(-c4cc5c(-c6ccncc6)nccc5[nH]4)n[nH]c3cn2)c1 [Compound 121, N-(5-(3-(4-(Pyridin-4-yl)-1H-pyrrolo[3,2-c]pyridin-2-yl)-1H-pyrazolo[3,4-c]pyridin-5-yl)pyridin-3-yl)isobutyramide]		32	9.81	> 10	> 10	> 10	19.7		6.2	0
